# Laboratory results from PubChem BioAssay (NCI).
# Values joined by “and” are separate entries in the source; they are usually repeats but may differ in a detail not shown here. Equal values may be shown once.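 These data come from cells grown in 96-well plates and exposed to compound for 48 hours at five concentrations. Definition used: TGI = concentration required for complete inhibition of growth.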
# Tests used:
# Test in all cases: NCI-60 cell line screen, 48 h
# [1] = system: 786-0 renal
# [2] = system: A498 renal
# [3] = system: BT-549 breast
# [4] = system: CCRF-CEM leukemia
# [5] = system: EKVX NSCLC
# [6] = system: HOP-62 NSCLC
# [7] = system: HS 578T breast
# [8] = system: MCF7 breast
# [9] = system: MDA-N
# [10] = system: NCI-H460 lung
# [11] = system: OVCAR-4 ovarian
# [12] = system: OVCAR-5 ovarian
# [13] = system: OVCAR-8 ovarian
# [14] = system: SF-268 CNS
# [15] = system: SK-MEL-5 melanoma
# [16] = system: SN12C renal
# [17] = system: SNB-75 CNS
# [18] = system: SW-620 colon
# [19] = system: UO-31 renal
# [20] = system: UACC-62 melanoma
compound,measurement,setting,value
O=C1NC(N/N=C\C(O)C(O)C(O)C(O)CO)=N/C1=C/c1ccc(Cl)cc1 (stereo not given),TGI,[1],> 100 µM
same,TGI,[2],> 100 µM
same,TGI,[3],> 100 µM
same,TGI,[4],> 100 µM
same,TGI,[5],> 100 µM
same,TGI,[6],> 100 µM
same,TGI,[7],> 100 µM
same,TGI,[8],> 100 µM
same,TGI,[9],> 100 µM
same,TGI,[10],> 100 µM
same,TGI,[11],> 100 µM and 50.7 µM
same,TGI,[12],> 100 µM
same,TGI,[13],> 100 µM
same,TGI,[14],> 100 µM
same,TGI,[15],> 100 µM
same,TGI,[16],> 100 µM
same,TGI,[17],> 100 µM
same,TGI,[18],> 100 µM
same,TGI,[19],> 100 µM
NCC(=O)Nc1ccc(S(=O)(=O)O)c2cc(S(=O)(=O)O)cc(S(=O)(=O)O)c12,TGI,[1],> 100 µM
same,TGI,[2],> 100 µM
same,TGI,[3],> 100 µM
same,TGI,[4],> 100 µM
same,TGI,[5],> 100 µM
same,TGI,[6],> 100 µM
same,TGI,[7],> 100 µM
same,TGI,[8],> 100 µM
same,TGI,[9],> 100 µM
same,TGI,[11],> 100 µM
same,TGI,[12],> 100 µM
same,TGI,[13],> 100 µM
same,TGI,[14],> 100 µM
same,TGI,[15],> 100 µM
same,TGI,[16],> 100 µM
same,TGI,[17],> 100 µM
same,TGI,[18],> 100 µM
same,TGI,[20],> 100 µM
same,TGI,[19],> 100 µM
O=C(NNC(=O)c1ccccc1O)c1cccc(Br)c1,TGI,[1],> 100 µM
same,TGI,[2],> 100 µM
same,TGI,[3],> 100 µM
same,TGI,[5],> 100 µM
same,TGI,[6],> 100 µM
same,TGI,[7],> 100 µM
same,TGI,[8],> 60.3 µM
same,TGI,[9],> 100 µM
same,TGI,[10],> 100 µM
same,TGI,[11],> 100 µM
same,TGI,[12],> 100 µM
same,TGI,[13],> 100 µM
same,TGI,[14],> 100 µM
same,TGI,[15],> 100 µM
same,TGI,[16],> 100 µM
same,TGI,[17],> 100 µM
same,TGI,[18],> 100 µM
same,TGI,[20],> 100 µM
same,TGI,[19],> 100 µM
COc1ccc(-c2cc3ccccc3oc2=O)cc1OC,TGI,[1],> 100 µM
same,TGI,[2],> 100 µM
same,TGI,[3],> 100 µM
same,TGI,[4],> 100 µM
same,TGI,[5],> 100 µM
same,TGI,[6],> 100 µM
same,TGI,[7],> 100 µM
same,TGI,[8],> 100 µM
same,TGI,[9],> 100 µM
same,TGI,[11],> 100 µM
same,TGI,[12],> 100 µM
same,TGI,[13],> 100 µM
same,TGI,[14],> 100 µM
same,TGI,[15],> 100 µM
same,TGI,[16],> 100 µM
same,TGI,[17],> 100 µM
same,TGI,[18],> 100 µM
same,TGI,[20],> 100 µM
same,TGI,[19],> 100 µM
Nc1ccccc1N=Cc1cc2cc([N+](=O)[O-])ccc2s1,TGI,[1],29.2 µM
same,TGI,[2],32.5 µM
same,TGI,[3],52.9 µM
same,TGI,[4],22.8 µM
same,TGI,[5],45.1 µM
same,TGI,[6],31.7 µM
same,TGI,[7],41.8 µM
same,TGI,[8],23 µM
same,TGI,[9],> 100 µM
same,TGI,[10],47.5 µM
same,TGI,[12],> 100 µM
same,TGI,[13],45.7 µM
same,TGI,[14],35.6 µM
same,TGI,[15],> 100 µM
same,TGI,[16],> 100 µM
same,TGI,[17],28.8 µM
same,TGI,[18],> 100 µM
same,TGI,[20],38.1 µM
same,TGI,[19],48.8 µM
